Data published in patent US20060110803A1 (Crucell Holland B.V., priority 2003, published 2006).

System: antibodies in sera of individuals which have been and/or are infected by SARS-CoV (SARS-green, SARS-yellow, 1a, 1b, 2, 6, 37, 62, London)
Assay type: binding, human

Row | Sequence | recognition by sera of SARS-CoV infected individuals, looped/cyclic form | recognition by sera of SARS-CoV infected individuals, linear form
1 | YDPLQPELDSFKEEL [SEQ ID NO:1136] | recognized in looped/cyclic form | –
2 | SMRGVYYPDEIFRSD [SEQ ID NO:75] | recognized in looped/cyclic form | –
3 | NHTSPDVDLGDISGI [SEQ ID NO:1154] | recognized in looped/cyclic form | –
4 | DPLQPELDSFKEELD [SEQ ID NO:1137] | recognized in looped/cyclic form | –
5 | FIAGLIAIVMVTILL [SEQ ID NO:1216] | recognized in looped/cyclic form | –
6 | FIFLLFLTLTSGSDL [SEQ ID NO:41] | recognized in looped/cyclic form | –
7 | TTEVMPVSMAKTSVD [SEQ ID NO:733] | recognized in looped/cyclic form | –
8 | VSGTATAGWTFGAGA [SEQ ID NO:888] | – | recognized in linear form
9 | LNEVAKNLNESLIDL [SEQ ID NO:1182] | recognized in looped/cyclic form | –
10 | FSPDGKPCTPPALNC [SEQ ID NO:488] | – | recognized in linear form
11 | TPPALNCYWPLNDYG [SEQ ID NO:496] | recognized in looped/cyclic form | –
12 | SSMRGVYYPDEIFRS [SEQ ID NO:74] | recognized in looped/cyclic form | –
13 | QNAQALNTLVKQLSS [SEQ ID NO:964] | recognized in looped/cyclic form | –
14 | NNTVYDPLQPELDSF [SEQ ID NO:1132] | recognized in looped/cyclic form | –
15 | SVDCNMYICGDSTEC [SEQ ID NO:745] | – | recognized in linear form
16 | LQDVVNQNAQALNTL [SEQ ID NO:958] | recognized in looped/cyclic form | –
17 | NVPFSPDGKPCTPPA [SEQ ID NO:485] | – | recognized in linear form
18 | ALNTLVKQLSSNFGA [SEQ ID NO:968] | recognized in looped/cyclic form | –
19 | NEVAKNLNESLIDLQ [SEQ ID NO:1183] | recognized in looped/cyclic form | –
20 | CTPPALNCYWPLNDY [SEQ ID NO:495] | recognized in looped/cyclic form | –

Row | Sequence | recognition by sera of SARS-CoV infected individuals, looped/cyclic form | recognition by sera of SARS-CoV infected individuals, linear form
21 | ITTEVMPVSMAKTSV [SEQ ID NO:732] | recognized in looped/cyclic form | –
22 | FLLFLTLTSGSDLDR [SEQ ID NO:43] | recognized in looped/cyclic form | –
23 | ESLTTTSTALGKLQD [SEQ ID NO:946] | recognized in looped/cyclic form | –
24 | IINNTVYDPLQPELD [SEQ ID NO:1130] | recognized in looped/cyclic form | –
25 | LFLTLTSGSDLDRCT [SEQ ID NO:45] | recognized in looped/cyclic form | –
26 | QESLTTTSTALGKLQ [SEQ ID NO:945] | recognized in looped/cyclic form | –
27 | GFIAGLIAIVMVTIL [SEQ ID NO:1215] | recognized in looped/cyclic form | –
28 | HTSSMRGVYYPDEIF [SEQ ID NO:72] | recognized in looped/cyclic form | –
29 | KNLNESLIDLQELGK [SEQ ID NO:1187] | recognized in looped/cyclic form | –
30 | RLNEVAKNLNESLID [SEQ ID NO:1181] | recognized in looped/cyclic form | –
31 | AKNLNESLIDLQELG [SEQ ID NO:1186] | recognized in looped/cyclic form | –
32 | TATAGWTFGAGAALQ [SEQ ID NO:891] | – | recognized in linear form
33 | PFSPDGKPCTPPALN [SEQ ID NO:487] | – | recognized in linear form
34 | IQESLTTTSTALGKL [SEQ ID NO:944] | recognized in looped/cyclic form | –
35 | EVAKNLNESLIDLQE [SEQ ID NO:1184] | recognized in looped/cyclic form | –
36 | LDKVEAEVQIDRLIT [SEQ ID NO:994] | recognized in looped/cyclic form | –
37 | VWLGFIAGLIAIVMV [SEQ ID NO:1212] | recognized in looped/cyclic form | –
38 | KYFKNHTSPDVDLGD [SEQ ID NO:1150] | recognized in looped/cyclic form | –
39 | VYDPLQPELDSFKEE [SEQ ID NO:1135] | recognized in looped/cyclic form | –
40 | YVWLGFIAGLIAIVM [SEQ ID NO:1211] | recognized in looped/cyclic form | –

Row | Sequence | recognition by sera of SARS-CoV infected individuals, looped/cyclic form | recognition by sera of SARS-CoV infected individuals, linear form
41 | KFNGLTVLPPLLTDD [SEQ ID NO:864] | recognized in looped/cyclic form | –
42 | ELDKYFKNHTSPDVD [SEQ ID NO:1147] | recognized in looped/cyclic form | –
43 | QDVVNQNAQALNTLV [SEQ ID NO:959] | recognized in looped/cyclic form | –
44 | FNGLTVLPPLLTDDM [SEQ ID NO:865] | recognized in looped/cyclic form | –
45 | PLQPELDSFKEELDK [SEQ ID NO:1138] | recognized in looped/cyclic form | –
46 | TSVDCNMYICGDSTE [SEQ ID NO:744] | – | recognized in linear form
47 | QPELDSFKEELDKYF [SEQ ID NO:1140] | recognized in looped/cyclic form | –
48 | WLGFIAGLIAIVMVT [SEQ ID NO:1213] | recognized in looped/cyclic form | –
49 | HTSPDVDLGDISGIN [SEQ ID NO:1155] | recognized in looped/cyclic form | –
50 | INNTVYDPLQPELDS [SEQ ID NO:1131] | recognized in looped/cyclic form | –
51 | TQHTSSMRGVYYPDE [SEQ ID NO:70] | recognized in looped/cyclic form | –
52 | LTSGSDLDRCTTFDD [SEQ ID NO:49] | recognized in looped/cyclic form | –
53 | GTATAGWTFGAGAAL [SEQ ID NO:890] | – | recognized in linear form
54 | SGSDLDRCTTFDDVQ [SEQ ID NO:51] | recognized in looped/cyclic form | –
55 | VDCNMYICGDSTECA [SEQ ID NO:746] | – | recognized in linear form
56 | LLFLTLTSGSDLDRC [SEQ ID NO:44] | recognized in looped/cyclic form | –
57 | AKTSVDCNMYICGDS [SEQ ID NO:742] | – | recognized in linear form
58 | SPDVDLGDISGINAS [SEQ ID NO:1157] | recognized in looped/cyclic form | –
59 | MRGVYYPDEIFRSDT [SEQ ID NO:76] | recognized in looped/cyclic form | –
